Common to all, as to format: in vivo
For one assay, the system named is Myzus persicae. Description: Example B4: Myzus persicae (green peach aphid), intrinsic activity. The following applies: 120 h, test rate 12 ppm, 5 days after infestation. From the text: Example B4: Myzus persicae (Green Peach Aphid): Intrinsic Activity
Test compounds prepared from 10,000 ppm DMSO stock solutions were applied by pipette into 24-well microtiter plates and mixed with sucrose solution. The plates were closed with a stretched Parafilm. A plastic stencil with 24 holes was placed onto the plate and infested pea seedlings were placed directly on the Parafilm. The infested plate was closed with a gel blotting paper and another plastic stencil and then turned upside down. The samples were assessed for mortality 5 days after infestation.

The subject of a further assay is Anopheles stephensi. Description: Example B11: insecticide impregnated polymer surfaces (LDPE sheets), Anopheles stephensi. The settings on record: 2% active ingredient in LDPE sheets, after 48 h and/or 24 h. An excerpt: (§1) Example B11: Evaluation of Insecticide Impregnated Polymer Surfaces
(§2) Preparation of polymeric sheets: Compound P1.17 was impregnated into LDPE (low density polyethylene) by mixing the respective polymer with the compound at high temperatures and the resultant polymeric material was then mould into thin discs or plaques.
(§3) Twenty four hours prior to the relevant assessment intervals, three to five day old non-blood fed adult mosquitoes were taken from the culture and lightly anaesthetised with carbon dioxide. Ten females were selected and placed in a 250 ml plastic cup, retained with a net lid, provided with a 10% sucrose solution soaked in a cotton wool bung and held under culturing environmental conditions.
(§4) After twenty four hours, impregnated polymer sheets (measuring about 150 mm in diameter and about 0.1 mm in thickness) were removed from storage and wrapped around the glazed side of an 11 cm ceramic tile and held in place with an elastic band. The age of the polymer sheets used were either 1-2 weeks or 10 weeks old. A cup of the pre-selected mosquitoes were again lightly anaesthetised with carbon dioxide and transferred from the holding cup to the base of a 9 cm plastic Petri dish. The relevant impregnated polymer sheet was placed over the Petri dish and held in place with an elastic band. Once the mosquitoes had recovered from the anaesthetic, ca. 1 minute, the impregnated polymer sheet was placed on a holding rack, such that treated side was at an angle of 60° to the horizontal.
(§5) After one hour an assessment of mosquito knockdown was made. A mosquito was said to be knocked down if it was unable to right itself once it had fallen over. The mosquitoes were lightly anaesthetised again, and removed from the Petri dish exposure chamber and returned to the holding cups. The mosquitoes were supplied with a 10% sucrose solution soaked in a cotton wool bung and held under culturing environmental conditions. An assessment of mortality was made 24 hours and 48 hours after exposure. A mosquito was said to be dead if it is unable to right itself once it had fallen over.

Assay [1] relates to Spodoptera littoralis. In words: Example B5: Spodoptera littoralis (Egyptian cotton leaf worm), sprayed cotton leaf discs. The following applies: foliar, 72 h, application rate 200 ppm, L1 larvae, 3 days after infestation, read-out: control (mortality, anti-feeding effect, growth inhibition). How it is done:
Example B5: Spodoptera littoralis (Egyptian Cotton Leaf Worm)
Cotton leaf discs were placed onto agar in 24-well microtiter plates and sprayed with aqueous test solutions prepared from 10,000 ppm DMSO stock solutions. After drying the leaf discs were infested with five L1 larvae. The samples were assessed for mortality, anti-feeding effect, and growth inhibition in comparison to untreated samples 3 days after infestation. Control of Spodoptera littoralis by a test sample is given when at least one of the categories mortality, anti-feedant effect, and growth inhibition is higher than the untreated sample.

For the next assay, the system named is Diabrotica balteata. Description: Example B1: Diabrotica balteata (corn root worm), sprayed maize sprouts. The following applies: 96 h, read-out: effect in at least one of the two categories (mortality or growth inhibition). How it is done:
Example B1: Diabrotica balteata (Corn Root Worm)
Maize sprouts placed onto an agar layer in 24-well microtiter plates were treated with aqueous test solutions prepared from 10,000 ppm DMSO stock solutions by spraying. After drying, the plates were infested with L2 larvae (6 to 10 per well). The samples were assessed for mortality and growth inhibition in comparison to untreated samples 4 days after infestation.

The next assay has as its system Plutella xylostella. Description: Example B4 (second): Plutella xylostella (diamond back moth), artificial diet. The following applies: 120 h, application rate 200 ppm, L2 larvae, 5 days after infestation, read-out: effect in at least one of the two categories (mortality or growth inhibition). Here is the method: Example B4: Plutella xylostella (Diamond Back Moth)
24-well microtiter plates with artificial diet were treated with aqueous test solutions prepared from 10,000 ppm DMSO stock solutions by pipetting. After drying, the plates were infested with L2 larvae (10 to 15 per well). The samples were assessed for mortality and growth inhibition in comparison to untreated samples 5 days after infestation.

The test system of another assay is Aedes aegypti. Description: Example B11: insecticide impregnated polymer surfaces (LDPE sheets), Aedes aegypti. The settings on record: 2% active ingredient in LDPE sheets, after 48 h and/or 24 h.
Description: as §1, §2, §3, §4, §5

Assay [2] deals with Spodoptera littoralis. In words: Example B6: Spodoptera littoralis (Egyptian cotton leaf worm), root uptake by lettuce from agar. The following applies: 144 h, test rate 12.5 ppm, 6 days after infestation, read-out: effect in at least one of the three categories (mortality, anti-feeding, or growth inhibition). From the text:
Example B6: Spodoptera littoralis (Egyptian Cotton Leaf Worm)
Test compounds were applied by pipette from 10,000 ppm DMSO stock solutions into 24-well plates and mixed with agar. Lettuce seeds were placed onto the agar and the multi well plate was closed by another plate which contained also agar. After 7 days the compound was absorbed by the roots and the lettuce grew into the lid plate. The lettuce leaves were then cut off into the lid plate. Spodoptera eggs were pipetted through a plastic stencil onto a humid gel blotting paper and the lid plate was closed with it. The samples were assessed for mortality, anti-feedant effect and growth inhibition in comparison to untreated samples 6 days after infestation.

The next assay concerns Tetranychus urticae. Description: Example B7: Tetranychus urticae (two-spotted spider mite), feeding/contact activity. The settings on record: 192 h, application rate 200 ppm, mixed population (mobile stages), 8 days after infestation. How it is done:
Example B7: Tetranychus urticae (Two-Spotted Spider Mite): Feeding/Contact Activity
Bean leaf discs on agar in 24-well microtiter plates were sprayed with aqueous test solutions prepared from 10,000 ppm DMSO stock solutions. After drying the leaf discs were infested with a mite population of mixed ages. The samples were assessed for mortality on mixed population (mobile stages) 8 days after infestation.

The next assay deals with Euschistus heros. In words: Example B2: Euschistus heros (neotropical brown stink bug), sprayed soybean leaves. The settings on record: 120 h, application rate 200 ppm, N2 nymphs, 5 days after infestation, read-out: effect in at least one of the two categories (mortality or growth inhibition). How it is done:
Example B2: Euschistus heros (Neotropical Brown Stink Bug)
Soybean leaves on agar in 24-well microtiter plates were sprayed with aqueous test solutions prepared from 10,000 ppm DMSO stock solutions. After drying the leaves were infested with N2 nymphs. The samples were assessed for mortality and growth inhibition in comparison to untreated samples 5 days after infestation.

Broadly, the mortality is the percentage killed.

In turn, `CN1OC(c2ccccc2)(C2CC2)N=C1NC(C)(C)C` (stereo not shown) [Compound P1.17, N-tert-Butyl-5-cyclopropyl-2-methyl-5-phenyl-1,2,4-oxadiazol-3-amine] came in with a mortality at 12 ppm in the assay with Myzus persicae of no less than 80%. The “control of Anopheles stephensi” value with Anopheles stephensi (sheet after 1 week), with Anopheles stephensi (sheet after 2 weeks) and with Anopheles stephensi (sheet after 10 weeks) was “at least 80%” each time. In addition, in the assay on Spodoptera littoralis [1], the mortality at 200 ppm was no less than 80%. In addition, the percent control (mortality or growth inhibition) at 200 ppm in the assay with Diabrotica balteata was no less than 80%. Besides, the percent effect (mortality or growth inhibition) at 200 ppm in the assay with Plutella xylostella was no less than 80%. The “control of Aedes Aegypti” value in the assay on Aedes aegypti (sheet after 1 week), in the assay on Aedes aegypti (sheet after 2 weeks) and in the assay on Aedes aegypti (sheet after 10 weeks) was “at least 80%” throughout.
For `CN1OC(c2ccccc2)(C2CC2)N=C1N(C)C(C)(C)C` (stereo not shown) [Compound P1.18, N-tert-Butyl-5-cyclopropyl-N,2-dimethyl-5-phenyl-1,2,4-oxadiazol-3-amine], the percent control (mortality or growth inhibition) at 200 ppm in the assay on Diabrotica balteata was no less than 80%.
Regarding `CN1OC(c2ccc(F)cc2)(C2CC2)N=C1NC(C)(C)C(F)(F)F` (stereo not shown) [Compound P1.88, 5-Cyclopropyl-5-(4-fluorophenyl)-2-methyl-N-(2,2,2-trifluoro-1,1-dimethyl-ethyl)-1,2,4-oxadiazol-3-amine], the percent effect (mortality, anti-feeding or growth inhibition) at 12.5 ppm in the assay with Spodoptera littoralis [2] was no less than 80%. In the assay on Myzus persicae, this compound returned a mortality at 12 ppm of no less than 80%. Further, the mortality at 200 ppm with Spodoptera littoralis [1] and in the assay on Tetranychus urticae was no less than 80% throughout. The percent control (mortality or growth inhibition) at 200 ppm in the assay with Diabrotica balteata was no less than 80%. Besides, the percent effect (mortality or growth inhibition) at 200 ppm in the assay with Euschistus heros and with Plutella xylostella was no less than 80% in each case.
In the case of `CCC1(c2ccccc2)N=C(NC(C)(C)C)N(C)O1` (stereo not shown) [Compound P1.94, N-tert-Butyl-5-ethyl-2-methyl-5-phenyl-1,2,4-oxadiazol-3-amine], the percent control (mortality or growth inhibition) at 200 ppm in the assay with Diabrotica balteata is no less than 80%. This compound also returned a mortality at 200 ppm with Tetranychus urticae of no less than 80%.
With `CN1OC(c2ccc(C#N)cc2)(C2CC2)N=C1NC(C)(C)C` (stereo not shown) [Compound P1.136, 4-[3-(tert-butylamino)-5-cyclopropyl-2-methyl-1,2,4-oxadiazol-5-yl]benzonitrile], in the assay on Diabrotica balteata, the percent control (mortality or growth inhibition) at 200 ppm was no less than 80%.
Still for that read-out and setting: the result for `CN1OC(c2ccc(-c3ccc(F)cc3)cc2)(C2CC2)N=C1NC(C)(C)C` (stereo not shown) [Compound P1.137, N-tert-butyl-5-cyclopropyl-5-[4-(4-fluorophenyl)phenyl]-2-methyl-1,2,4-oxadiazol-3-amine] reads no less than 80%.

The record behind these values is US20180360040A1, “PESTICIDAL COMPOUNDS AND THEIR USES” (priority 2015, published 2018).
